In patent US10093630B2, “Pyrazole compounds and methods of making and using same” (ABIDE THERAPEUTICS, INC., priority 2014, dated 2018):
Where two headings read alike, the source gives them in different places.

Key:
Test in all cases: In vitro competitive activity-based protein profiling (gel-based, FP-Rh or HT-01 probe)
Format in all cases: biochemical
PLA2G7 = target: T1, PLA2G7 (Mus musculus, UniProt Q60963); conditions: for inhibition at 1 µM: 1 μM inhibitor, read-out: % Inhibition at 1 μM, D = PLA2G7; for IC50: mouse brain membrane fraction or cell lysates, 30 min preincubation at 37° C.; for inhibition at 10 µM: 10 μM inhibitor, read-out: % Inhibition at 10 μM, D = PLA2G7
T1 construct: Proteomes (mouse brain membrane fraction or cell lysates); from tissue; host or cells: mouse brain membrane fraction (or cell lysates, not specified)
T1 sequence (Q60963 22-440): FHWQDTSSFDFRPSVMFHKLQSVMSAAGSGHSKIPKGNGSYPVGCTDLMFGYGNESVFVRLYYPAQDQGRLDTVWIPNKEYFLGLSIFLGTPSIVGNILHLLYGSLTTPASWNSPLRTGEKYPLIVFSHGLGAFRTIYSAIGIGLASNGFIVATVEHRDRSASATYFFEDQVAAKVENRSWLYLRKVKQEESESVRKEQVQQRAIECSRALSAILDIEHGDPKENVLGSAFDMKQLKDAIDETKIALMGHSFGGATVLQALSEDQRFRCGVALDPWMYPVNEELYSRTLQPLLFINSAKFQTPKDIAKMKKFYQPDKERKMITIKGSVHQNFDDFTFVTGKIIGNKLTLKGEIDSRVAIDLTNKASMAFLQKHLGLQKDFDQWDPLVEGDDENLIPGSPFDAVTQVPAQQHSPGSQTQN
Outline: (§1)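 Competitive labelling format in mouse brain membrane fractions or lysates at 1.0 mg/mL total protein: compounds preincubate 30 min at 37° C, activity probe FP-Rh or HT-01 then reacts 30 min at 37° C. Gel band fluorescence gives target activity.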

MAGL = target: T2, MAGL (Mus musculus, UniProt O35678); conditions: for inhibition at 1 µM: 1 μM inhibitor; for IC50: mouse brain membrane fraction or cell lysates, 30 min preincubation at 37° C., read-out: Mouse (IC50 value, nM) MAGL; for inhibition at 10 µM: 10 μM inhibitor
T2 construct: Proteomes (mouse brain membrane fraction or cell lysates); from tissue; host or cells: mouse brain membrane fraction (or cell lysates, not specified)
T2 sequence (O35678 1-303): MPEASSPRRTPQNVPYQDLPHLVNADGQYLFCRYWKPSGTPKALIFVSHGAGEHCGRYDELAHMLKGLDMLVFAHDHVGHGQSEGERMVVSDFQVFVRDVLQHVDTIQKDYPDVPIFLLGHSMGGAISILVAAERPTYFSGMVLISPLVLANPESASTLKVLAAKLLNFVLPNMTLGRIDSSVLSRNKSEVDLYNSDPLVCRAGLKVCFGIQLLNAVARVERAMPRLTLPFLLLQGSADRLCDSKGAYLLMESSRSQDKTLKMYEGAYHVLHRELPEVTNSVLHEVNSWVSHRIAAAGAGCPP
Outline: as §1

FAAH = target: T3, FAAH (Mus musculus, UniProt O08914); conditions: for inhibition at 1 µM: 1 μM inhibitor, read-out: % Inhibition at 1 μM, B = FAAH; for IC50: mouse brain membrane fraction or cell lysates, 30 min preincubation at 37° C., read-out: Mouse (IC50 value, nM) FAAH; for inhibition at 10 µM: 10 μM inhibitor, read-out: % Inhibition at 10 μM, B = FAAH
T3 construct: Proteomes (mouse brain membrane fraction or cell lysates); from tissue; host or cells: mouse brain membrane fraction (or cell lysates, not specified)
T3 sequence (O08914 1-579): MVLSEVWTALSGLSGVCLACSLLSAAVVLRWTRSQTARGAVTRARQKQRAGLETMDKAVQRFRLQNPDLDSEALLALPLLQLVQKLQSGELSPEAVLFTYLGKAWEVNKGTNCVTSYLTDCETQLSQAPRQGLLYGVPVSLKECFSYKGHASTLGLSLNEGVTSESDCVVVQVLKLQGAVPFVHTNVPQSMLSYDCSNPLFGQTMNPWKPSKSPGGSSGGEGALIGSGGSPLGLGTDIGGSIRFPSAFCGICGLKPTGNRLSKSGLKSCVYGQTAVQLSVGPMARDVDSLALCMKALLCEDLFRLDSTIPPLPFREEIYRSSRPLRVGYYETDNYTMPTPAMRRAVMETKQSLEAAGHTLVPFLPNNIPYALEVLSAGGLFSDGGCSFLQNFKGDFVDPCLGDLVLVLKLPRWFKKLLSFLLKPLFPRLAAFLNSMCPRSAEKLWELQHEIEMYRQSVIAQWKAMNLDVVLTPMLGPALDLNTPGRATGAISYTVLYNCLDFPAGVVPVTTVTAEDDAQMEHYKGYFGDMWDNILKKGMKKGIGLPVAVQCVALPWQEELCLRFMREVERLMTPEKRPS
Outline: as §1

ABHD6 = target: T4, ABHD6 (Mus musculus, UniProt Q8R2Y0); conditions: for inhibition at 1 µM: 1 μM inhibitor, read-out: % Inhibition at 1 μM, C = ABHD6; for IC50: mouse brain membrane fraction or cell lysates, 30 min preincubation at 37° C., read-out: Mouse (IC50 value, nM) ABHD6; for inhibition at 10 µM: 10 μM inhibitor, read-out: % Inhibition at 10 μM, C = ABHD6
T4 construct: Proteomes (mouse brain membrane fraction or cell lysates); from tissue; host or cells: mouse brain membrane fraction (or cell lysates, not specified)
T4 sequence (Q8R2Y0 1-336): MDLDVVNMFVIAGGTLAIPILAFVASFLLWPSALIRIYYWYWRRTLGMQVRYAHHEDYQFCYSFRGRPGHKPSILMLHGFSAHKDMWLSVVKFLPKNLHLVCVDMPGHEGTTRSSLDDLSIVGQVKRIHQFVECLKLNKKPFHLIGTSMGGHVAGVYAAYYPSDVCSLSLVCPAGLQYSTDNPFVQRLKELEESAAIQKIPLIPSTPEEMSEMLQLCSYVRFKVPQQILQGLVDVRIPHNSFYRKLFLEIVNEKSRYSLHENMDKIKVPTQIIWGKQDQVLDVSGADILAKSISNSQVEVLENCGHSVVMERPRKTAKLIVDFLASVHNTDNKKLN
Outline: as §1

Row | SMILES | inhibition at 1 µM (PLA2G7) [%] | IC50 (PLA2G7) [nM] | inhibition at 1 µM (MAGL) [%] | IC50 (MAGL) [nM] | inhibition at 1 µM (FAAH) [%] | IC50 (FAAH) [nM] | inhibition at 1 µM (ABHD6) [%] | IC50 (ABHD6) [nM] | inhibition at 10 µM (PLA2G7) [%] | inhibition at 10 µM (MAGL) [%] | inhibition at 10 µM (FAAH) [%] | inhibition at 10 µM (ABHD6) [%] | inhibition at 1 µM (PLA2G7; gel-based competitive ABPP) [%] | inhibition at 10 µM (PLA2G7; gel-based competitive ABPP) [%] | inhibition at 1 µM (MAGL; gel-based competitive ABPP) [%] | inhibition at 10 µM (MAGL; gel-based competitive ABPP) [%] | inhibition at 1 µM (FAAH; gel-based competitive ABPP) [%] | inhibition at 10 µM (FAAH; gel-based competitive ABPP) [%] | inhibition at 1 µM (ABHD6; gel-based competitive ABPP) [%] | inhibition at 10 µM (ABHD6; gel-based competitive ABPP) [%]
1 | O=C(c1cnn(C(=O)N2CCN(Cc3ccc4c(c3)OCO4)CC2)c1)N1CCCC1 [Example 78, (4-(Benzo[d][1,3]dioxol-5-ylmethyl)piperazin-1-yl)(4-(pyrrolidine-1-carbonyl)-1H-pyrazol-1-yl)methanone] | < 25 |  | < 25 |  | > 75 |  | > 75 |  | > 75 | > 75 | > 75 | > 75 |  |  |  |  |  |  |  | 
2 | Cc1cc(N2CCN(C(=O)n3cc(C#N)cn3)CC2)c2ccccc2n1 [Example 209, 1-(4-(2-Methylquinolin-4-yl)piperazine-1-carbonyl)-1H-pyrazole-4-carbonitrile] | > 75 |  | > 75 |  | > 75 |  | > 75 |  | > 75 | > 75 | > 75 | > 75 |  |  |  |  |  |  |  | 
3 | Cc1cc(-c2ccccc2)ccc1CN1CCN(C(=O)n2cc(C(=O)N3CCCCC3)cn2)CC1 [Example 76, (4-((3-Methyl-[1,1′-biphenyl]-4-yl)methyl)piperazin-1-yl)(4-(piperidine-1-carbonyl)-1H-pyrazol-1-yl)methanone] | > 75 |  | > 75 | 100 to 1000 | > 75 | < 100 | > 75 | 100 to 1000 | > 75 | > 75 | > 75 | > 75 |  |  |  |  |  |  |  | 
4 | N#Cc1cnn(C(=O)N2CCN(Cc3ccc(C(=O)N4CCC4)cc3F)CC2)c1 [Example 285, 1-(4-(4-(Azetidine-1-carbonyl)-2-fluorobenzyl)piperazine-1-carbonyl)-1H-pyrazole-4-carbonitrile] |  |  |  |  |  |  |  |  |  |  |  |  | > 75 | > 75 | > 75 | > 75 | > 75 | > 75 | > 75 | > 75
5 | O=C(N1CCN(Cc2ccc(-c3ccccc3)cc2Cl)CC1)n1cc(Cl)cn1 [Example 139, (4-chloro-1H-pyrazol-1-yl)(4-((3-chlorobiphenyl-4-yl)methyl)piperazin-1-yl)methanone] | < 25 | > 1000 | > 75 | < 100 | > 75 | < 100 | > 75 | 100 to 1000 | > 75 | > 75 | > 75 | > 75 |  |  |  |  |  |  |  | 
6 | N#Cc1cnn(C(=O)N2CCN(Cc3ccc4ccccc4c3)CC2)c1 [Example 12, 1-(4-(Naphthalen-2-ylmethyl)piperazine-1-carbonyl)-1H-pyrazole-4-carbonitrile] | > 75 |  | > 75 |  | > 75 |  | > 75 |  | > 75 | > 75 | > 75 | > 75 |  |  |  |  |  |  |  | 
7 | O=C(N1CCN(Cc2ccccc2)CC1)n1cc(C(F)(F)F)cn1 [Example 152, (4-Benzylpiperazin-1-yl)(4-(trifluoromethyl)-1H-pyrazol-1-yl)methanone] | > 75 |  | > 75 |  | > 75 |  | > 75 |  | > 75 | > 75 | > 75 | > 75 |  |  |  |  |  |  |  | 
8 | O=C(N1CCN(CC2CC2)CC1)n1cc(Cl)cn1 [Example 215, (4-Chloro-1H-pyrazol-1-yl)(4-(cyclopropylmethyl)piperazin-1-yl)methanone] | < 25 |  | 25 to 75 |  | > 75 |  | > 75 |  | > 75 | > 75 | > 75 | > 75 |  |  |  |  |  |  |  | 
9 | Cc1cnn(C(=O)N2CCCCC2)c1 [Example 2, (4-Methyl-1H-pyrazol-1-yl)(piperidin-1-yl)methanone] | < 25 |  | < 25 |  | < 25 |  | 25 to 75 |  | > 75 | 25 to 75 | > 75 | > 75 |  |  |  |  |  |  |  | 

Second part, the compound after the results:

Row | inhibition at 1 µM (PLA2G7) [%] | IC50 (PLA2G7) [nM] | inhibition at 1 µM (MAGL) [%] | IC50 (MAGL) [nM] | inhibition at 1 µM (FAAH) [%] | IC50 (FAAH) [nM] | inhibition at 1 µM (ABHD6) [%] | IC50 (ABHD6) [nM] | inhibition at 10 µM (PLA2G7) [%] | inhibition at 10 µM (MAGL) [%] | inhibition at 10 µM (FAAH) [%] | inhibition at 10 µM (ABHD6) [%] | inhibition at 1 µM (PLA2G7; gel-based competitive ABPP) [%] | inhibition at 10 µM (PLA2G7; gel-based competitive ABPP) [%] | inhibition at 1 µM (MAGL; gel-based competitive ABPP) [%] | inhibition at 10 µM (MAGL; gel-based competitive ABPP) [%] | inhibition at 1 µM (FAAH; gel-based competitive ABPP) [%] | inhibition at 10 µM (FAAH; gel-based competitive ABPP) [%] | inhibition at 1 µM (ABHD6; gel-based competitive ABPP) [%] | inhibition at 10 µM (ABHD6; gel-based competitive ABPP) [%] | SMILES
10 | < 25 | > 1000 | > 75 | < 100 | > 75 | < 100 | > 75 | < 100 |  |  |  |  |  |  |  |  |  |  |  |  | O=C(N1CCN(Cc2ccc(Cl)cc2)CC1)n1cc(Cl)cn1 [Example 226, (4-Chloro-1H-pyrazol-1-yl)(4-(4-chlorobenzyl)piperazin-1-yl)methanone]
11 | < 25 |  | < 25 |  | < 25 |  | < 25 |  | < 25 | 25 to 75 | 25 to 75 | 25 to 75 |  |  |  |  |  |  |  |  | CN(CCN(C)C(=O)n1cccn1)C(=O)OC(C)(C)C [Example 28, tert-Butyl methyl(2-(N-methyl-1H-pyrazole-1-carboxamido)ethyl)carbamate]
12 | > 75 |  | > 75 | 100 to 1000 | > 75 | 100 to 1000 | > 75 | < 100 |  |  |  |  |  |  |  |  |  |  |  |  | CNC(=O)c1cnn(C(=O)N2CCN(Cc3ccc(Cl)cc3)CC2)c1 [Example 223, 1-(4-(4-Chlorobenzyl)piperazine-1-carbonyl)-N-methyl-1H-pyrazole-4-carboxamide]
13 | < 25 |  | < 25 |  | < 25 |  | < 25 |  | < 25 | > 75 | < 25 | < 25 |  |  |  |  |  |  |  |  | O=C(Nc1ccc2ccccc2c1)n1cccn1 [Example 40, N-(Naphthalen-2-yl)-1H-pyrazole-1-carboxamide]
